B1: α-keto acid reductase: NADH-dependent α-keto acid reductase purified from Leuconostoc mesenteroides subsp. dextranicum ATCC 17072; amino acid sequence SEQ ID NO: 2 (protein)
chain: MKIAIAGFGALGARLGVMLQAGGHEVTGIDGWPAHIAAINTKGLTVVKDNDAPQKYFVPVMPASEVTGTFDLIILLTKTPQLDRMLTDIQPIITDTTKLLVLSNGLGNIEVMAKHVSRHQILAGVTLWTSSLIKPGEIHVTGSGSIKLQAIGDADVQSIADALNQAGLNAEITPDVMTAIWHKAGINAVLNPLSVLLNANIAEFGTAGNAMDLALNILDEMKQVGASQGIKVDVSGIMTDLSQLLKPENAGNHFPSMYQDIQNGKRTEIDFLNGYFAKIGHESGIPTPFNALVTRLIHAKEDIERVKLAKQQENFEI
modifications: Leuconostoc mesenteroides

The subject of one series is α-keto acid reductase. As to the kind of experiment: Substrate specificity of α-keto acid reductase (reduction reaction). The format is biochemical, Leuconostoc mesenteroides subsp. dextranicum. The settings on record: coenzyme NADH, substrate 1 mM; reduction activity of 2-chlorophenyl glyoxylic acid taken as 100. On the procedure: (§1) The enzyme obtained in Example 9 was incubated with various α-keto acids, ketones, ketols, etc. The activities of the reduction reaction are shown in Table 8, defined as relative activities taking the reduction activity of 2-chlorophenyl glyoxylic acid as 100.
As to `CC(=O)C(=O)O` [pyruvic acid], the Relative activity was 0.0%.
On the same count and under the same terms, then `O=C(O)C(=O)c1ccccc1Cl` [2-chlorophenyl glyoxylic acid], with 100.0%; and `CC(C)(C)C(=O)C(=O)O` [trimethyl pyruvic acid], with 0.1%.
On the same count and under the same terms, for `CCCCC(=O)C(=O)O` [α-ketocaproic acid] the value was 4.3%; for `O=C(O)C(=O)c1ccccc1` [phenyl glyoxylic acid], 12.9%; for `CCC(=O)C(=O)O` [α-ketobutyric acid], 0.4%.
Same read-out and setting: then `O=C(O)C(=O)c1cccc(Cl)c1` [3-chlorophenyl glyoxylic acid], with 4.5%; and `CCCC(=O)C(=O)O` [α-ketovaleric acid], with 3.1%.
As to `CC(C)CC(=O)C(=O)O` [α-ketoisocaproic acid], the Relative activity came to 14.7%.
Same read-out and setting: then `O=C(O)C(=O)Cc1ccccc1` [α-keto-4-phenylpyruvic acid], with 0.1%; and `O=C(O)C(=O)Cc1ccccc1` [β-phenylpyruvic acid], with 0.3%; and `CC(C)C(=O)C(=O)O` [α-ketoisovaleric acid], with 19.3%.

The same series, now with this note: coenzyme NADH, substrate 5 mM; reduction activity of 2-chlorophenyl glyoxylic acid taken as 100.
The molecule `CC(C)(CO)C(=O)C(=O)O` [keto pantoic acid] returned a Relative activity of 3.1%.

The same series, now with this note: coenzyme NADPH, substrate 1 mM; NADH reduction of 2-chlorophenyl glyoxylic acid taken as 100.
`O=C(O)C(=O)c1ccccc1Cl` [2-chlorophenyl glyoxylic acid] displayed a Relative activity of 0.4%.

The next series deals with α-keto acid reductase. The experiment in a line: Dehydrogenase activity of α-keto acid reductase against 2-chloromandelic acid. The settings on record: coenzyme NAD^+, substrate 1 mM; reduction activity of 2-chlorophenyl glyoxylic acid taken as 100. The format is biochemical, Leuconostoc mesenteroides subsp. dextranicum. On the procedure:
In the present invention, the dehydrogenase activity against 2-chloromandelic acid of an enzyme can be confirmed by the following assay procedure:incubate the enzyme at 30° C. in a reaction solution of 50 mM Tris-HCl buffer (pH 8.5) containing 2.5 mM NAD^+, and 1 mM 2-chloromandelic acid; and measure the increase in absorbance at 340 nm associated with the generation of NADH. 1 U is defined as an amount of enzyme that catalyzes the production of 1 μmol NADH in one minute.
as §1
As for `O=C(O)[C@H](O)c1ccccc1Cl` [(R)-2-chloromandelic acid], the Relative activity was determined as 0.045%.
On the same count and under the same terms, for `O=C(O)C(O)c1ccccc1Cl` (racemic) [(R,S)-2-chloromandelic acid] the value was 0.022%.

Test system in another series: not given
Experiment: not given
The format is biochemical, Leuconostoc mesenteroides subsp. dextranicum. The settings on record: purification steps from Leuconostoc mesenteroides subsp. dextranicum ATCC 17072, NADH-dependent. On the procedure: Leuconostoc mesenteroides subsp. dextranicum strain (ATCC 17072) was cultured in 1.2 L of MRS medium (Lactobacilli MRS broth, Difco Laboratories), and then cells were harvested by centrifugation. The resulting wet cells were suspended in 50 mM Tris-HCl buffer (pH 8.5) containing 0.02% 2-mercaptoethanol and 2 mM phenylmethanesulfonyl fluoride (PMSF), and crushed with a bead beater (Biospec Products, Inc.). Then, cell debris was removed by centrifugation to prepare cell-free extract. Protamine sulfate was added to the cell-free extract and the mixture was centrifuged to prepare supernatant avoid of nucleic acid. Ammonium sulfate was added to the supernatant at a final concentration of 30%. […] NADH-dependent 2-chlorophenyl glyoxylic acid-reducing activity was detected in fractions eluted with the gradient. […]
2-chlorophenyl glyoxylic acid-reducing activities of the enzyme obtained in Example 9 at various pHs were determined by changing the pH with the use of potassium phosphate buffer, sodium acetate buffer, and Britten and Robinson broad-range buffer. […]
2-chlorophenyl glyoxylic acid-reducing activities of the enzyme obtained in Example 9 were measured under standard reaction conditions at various temperatures. […]
For the molecule B1, the Relative activity was 3810 U/mg.

The series is the same for the next values; noted with them: purified enzyme, single band on SDS-PAGE.
As for B1, the Specific activity is given as 3,810 U/mg.
